Legend:
5-HT1A receptors = target: T1, 5-HT1A receptors (Rattus norvegicus, UniProt P19327); test: Displacement of 8-OH-DPAT at 5-HT1A receptors; type: binding; details: rat hippocampus homogenates
T1 construct: rat hippocampus homogenates; from tissue; host or cells: rat hippocampus
T1 sequence (P19327 1-422): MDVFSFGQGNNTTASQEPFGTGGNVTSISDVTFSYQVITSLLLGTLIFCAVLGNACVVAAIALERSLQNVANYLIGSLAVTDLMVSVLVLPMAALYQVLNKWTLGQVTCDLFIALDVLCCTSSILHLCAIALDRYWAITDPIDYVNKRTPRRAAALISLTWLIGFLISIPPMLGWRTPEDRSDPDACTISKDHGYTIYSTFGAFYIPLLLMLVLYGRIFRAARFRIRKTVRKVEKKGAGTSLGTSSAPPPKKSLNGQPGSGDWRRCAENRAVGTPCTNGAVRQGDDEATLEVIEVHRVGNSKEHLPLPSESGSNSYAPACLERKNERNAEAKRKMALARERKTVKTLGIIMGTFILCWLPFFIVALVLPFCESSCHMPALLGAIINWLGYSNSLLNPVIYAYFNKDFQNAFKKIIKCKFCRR
Protocol: (§1) A-2: Study of the binding of the compounds of the invention to the serotonin reuptake site as well as to 5-HT1, 5-HT1A, 5-HT1B, 5-HT1D, 5-HT2, 5-HT2C, 5-HT4 serotoninergic receptors.
(§2) The binding of the compounds of the invention is measured in accordance with conventional methods.
for 5-HT1A receptors, by the displacement of 8-OH-DPAT in rat hippocampus homogenates, […]

5-HT2 receptors = target: T2, 5-HT2 receptors (Rattus norvegicus, UniProt P14842); test: Displacement of aminoiodoketaneserine at 5-HT2 receptors; type: binding; details: rat frontal cortex homogenates
T2 construct: rat frontal cortex homogenates; from tissue; host or cells: rat frontal cortex
Protocol: as §1, §2
for 5-HT2 receptors, by the displacement of aminoiodoketaneserine in rat frontal cortex homogenates, […]

5-HT1 receptors = test: Displacement of 5-OH tryptamine at 5-HT1 receptors; type: binding; details: pig frontal cortex and striatum
Protocol: as §1, §2
for 5-HT1 receptors, by the displacement of 5-OH tryptamine in pig frontal cortex and striatum, […]

serotonin reuptake site = target: T3, serotonin reuptake site (Rattus norvegicus, UniProt P31652); test: Displacement of 3H-paroxetine at the serotonin reuptake site; type: binding; details: rat brain without cerebellum, read-out: IC50, serotonin reuptake sites
T3 construct: rat brain from which the cerebellum has been removed; from tissue; host or cells: rat brain without cerebellum
Protocol: as §1, §2
for the serotonin reuptake site, by the displacement of ^3 H-paroxetinein rat brain from which the cerebellum has been removed, […]

5-HT1D receptors = test: Displacement of 5-OH-tryptamine at 5-HT1D receptors; type: binding; details: rat cortex, striatum and globus pallidus homogenates
Protocol: as §1, §2
for 5-HT1D receptors, by the displacement of 5-OH-tryptamine in rat cortex, striatum and globus pallidus homogenates, […]

5-HT1B receptors = target: T4, 5-HT1B receptors (Rattus norvegicus, UniProt P28564); test: Displacement of 5-hydroxytryptamine at 5-HT1B receptors; type: binding; details: rat cortex, striatum, and globus pallidus homogenates
T4 construct: rat cortex, striatum, and globus pallidus homogenates; from tissue; host or cells: rat cortex, striatum and globus pallidus
Protocol: as §1, §2
for 5-HT1B receptors, by the displacement of 5-hydroxytryptamine in rat cortex, striatum, and globus pallidus homogenates, […]

5-HT3 receptors = target: T5, 5-HT3 receptors (Rattus norvegicus, UniProt P35563); test: Displacement of 3H-zacopride at 5-HT3 receptors; type: binding; details: 0.3-0.4 nM 3H-zacopride, rat area postrema homogenates, pH 7.4, 25° C., 30 minutes
T5 construct: rat area postrema homogenates; from tissue; host or cells: rat area postrema
T5 sequence (P35563 24-483): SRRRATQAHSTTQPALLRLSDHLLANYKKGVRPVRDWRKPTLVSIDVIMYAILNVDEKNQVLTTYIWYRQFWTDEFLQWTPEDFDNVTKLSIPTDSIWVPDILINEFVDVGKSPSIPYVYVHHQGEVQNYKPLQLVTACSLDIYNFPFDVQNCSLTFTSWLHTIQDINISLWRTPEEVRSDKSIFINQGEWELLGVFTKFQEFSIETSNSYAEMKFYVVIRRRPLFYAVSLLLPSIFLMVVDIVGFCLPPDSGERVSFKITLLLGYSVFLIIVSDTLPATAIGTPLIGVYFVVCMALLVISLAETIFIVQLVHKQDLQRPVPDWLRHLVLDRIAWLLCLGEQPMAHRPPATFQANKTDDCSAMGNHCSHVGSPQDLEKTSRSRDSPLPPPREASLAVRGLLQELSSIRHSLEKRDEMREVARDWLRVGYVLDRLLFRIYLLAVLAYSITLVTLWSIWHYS
Protocol: A-1: Study of the binding of the compounds of the invention to 5-HT3 serotoninergic receptors
The binding of the compounds of the invention to 5-HT3 receptors was determined for each compound by measuring the displacement of ^3 H-zacopride (specific ligand for 5-HT3 receptors) in rat area postrema homogenates.
Aliquot amounts (50-100 μl) of a membrane suspension (2.5-5.0 mg of protein/cm^3) are incubated for 30 minutes at 25° C. in a Tris-HCl buffer, 25 mM, pH 7,4, in the presence of 0.3-0.4 nM 3^H -zacopride (83 ci/mmol) (total volume: 0.5 cm^3). The incubation is terminated by filtering the samples through Whatman GF/B filters which are then washed and dried. The radioactivity retained on the filters is finally calculated by spectrometry in liquid medium (Aquasol). The non-specific binding is evaluated under the same conditions using samples containing in addition 1 μM of ondansetron (5-HT3 antagonist). The displacement curves obtained by adding increasing concentrations of a test compound to the incubation medium are analysed to determine the affinity of the test compounds for 5-HT3 receptors.

5-HT2C receptors = target: T6, 5-HT2C receptors (Rattus norvegicus, UniProt P08909); test: Displacement of N-methylmesulergine at 5-HT2C receptors; type: binding; details: rat frontal cortex and hippocampus homogenates
T6 construct: rat frontal cortex and hippocampus homogenates; from tissue; host or cells: rat frontal cortex and hippocampus
T6 sequence (P08909 33-460): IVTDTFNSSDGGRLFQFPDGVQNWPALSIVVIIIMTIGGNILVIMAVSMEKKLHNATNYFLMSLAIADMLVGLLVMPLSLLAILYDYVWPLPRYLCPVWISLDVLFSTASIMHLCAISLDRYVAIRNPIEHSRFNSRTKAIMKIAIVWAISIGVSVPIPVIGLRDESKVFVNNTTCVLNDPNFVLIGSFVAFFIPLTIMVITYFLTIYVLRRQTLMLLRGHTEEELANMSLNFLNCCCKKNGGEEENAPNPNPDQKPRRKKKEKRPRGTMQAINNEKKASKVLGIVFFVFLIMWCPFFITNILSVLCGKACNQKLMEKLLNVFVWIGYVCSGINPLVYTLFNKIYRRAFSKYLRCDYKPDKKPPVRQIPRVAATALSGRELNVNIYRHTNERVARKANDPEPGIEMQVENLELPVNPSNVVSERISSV
Protocol: as §1, §2
for 5-HT2C receptors, by the displacement of N-methylmesulergine in rat frontal cortex and hippocampus homogenates, […]

mouse = test: Antidepressant activity: forced swimming test on the mouse; type: in vivo; details: i.p. route, last 4 of 6 minutes
Protocol: The antidepressant effects of the compounds of the invention were studied in accordance with the forced swimming test on the mouse. (Behavioural despair in mice: a primary screening test for antidepressants, Porsolt R. D. et al, Arch. Int. Pharmacodyn., (1977), 229, pp. 327-336).
The animals are placed for 6 minutes in a cylinder containing water from which they cannot escape. The period of immobility of the animals is measured for the last 4 minutes of the test. The test compounds are administered in a single dose before the test (imipramine being used as the reference compound).

T2 sequence (P14842 whole entry): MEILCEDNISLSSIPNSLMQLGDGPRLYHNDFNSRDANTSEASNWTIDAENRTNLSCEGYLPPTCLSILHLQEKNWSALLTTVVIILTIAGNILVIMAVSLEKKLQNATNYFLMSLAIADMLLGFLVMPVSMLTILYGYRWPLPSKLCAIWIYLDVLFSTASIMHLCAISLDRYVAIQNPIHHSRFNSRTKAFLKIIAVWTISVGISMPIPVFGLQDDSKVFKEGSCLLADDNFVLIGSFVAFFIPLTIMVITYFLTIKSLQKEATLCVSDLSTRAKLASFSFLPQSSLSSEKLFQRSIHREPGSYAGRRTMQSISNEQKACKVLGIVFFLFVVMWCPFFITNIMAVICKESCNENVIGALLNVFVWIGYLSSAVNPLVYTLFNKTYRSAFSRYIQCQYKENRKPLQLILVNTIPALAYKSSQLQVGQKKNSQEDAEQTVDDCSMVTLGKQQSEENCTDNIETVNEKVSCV
T4 sequence (P28564 whole entry): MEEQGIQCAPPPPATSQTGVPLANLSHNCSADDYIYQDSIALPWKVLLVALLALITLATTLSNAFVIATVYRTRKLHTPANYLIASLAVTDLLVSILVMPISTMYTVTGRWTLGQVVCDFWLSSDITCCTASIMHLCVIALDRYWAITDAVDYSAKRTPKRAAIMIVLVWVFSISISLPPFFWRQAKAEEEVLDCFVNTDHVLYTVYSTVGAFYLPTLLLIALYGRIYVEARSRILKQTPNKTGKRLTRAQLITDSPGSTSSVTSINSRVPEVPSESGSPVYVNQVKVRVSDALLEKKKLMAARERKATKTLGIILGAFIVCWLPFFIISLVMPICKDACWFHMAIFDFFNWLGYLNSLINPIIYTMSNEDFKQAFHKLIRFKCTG
T3 sequence (P31652 whole entry): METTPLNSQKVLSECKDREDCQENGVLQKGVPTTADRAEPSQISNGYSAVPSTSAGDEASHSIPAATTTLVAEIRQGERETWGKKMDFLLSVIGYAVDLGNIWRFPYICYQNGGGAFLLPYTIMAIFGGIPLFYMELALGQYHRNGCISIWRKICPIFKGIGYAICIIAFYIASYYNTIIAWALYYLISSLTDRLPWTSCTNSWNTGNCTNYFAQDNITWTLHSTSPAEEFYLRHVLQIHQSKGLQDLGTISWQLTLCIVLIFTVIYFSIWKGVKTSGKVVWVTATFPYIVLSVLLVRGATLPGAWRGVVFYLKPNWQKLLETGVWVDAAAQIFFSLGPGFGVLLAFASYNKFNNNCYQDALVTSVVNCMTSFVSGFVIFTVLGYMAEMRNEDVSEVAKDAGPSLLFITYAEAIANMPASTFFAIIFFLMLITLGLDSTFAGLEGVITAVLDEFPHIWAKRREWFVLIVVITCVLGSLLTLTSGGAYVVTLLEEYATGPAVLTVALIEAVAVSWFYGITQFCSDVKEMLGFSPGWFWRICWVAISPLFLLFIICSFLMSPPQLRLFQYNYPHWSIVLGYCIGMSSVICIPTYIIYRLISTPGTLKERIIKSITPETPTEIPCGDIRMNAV

Structure (SMILES) | IC50 (5-HT1A receptors) | IC50 (5-HT2 receptors) | IC50 (5-HT1 receptors) | IC50 (serotonin reuptake site) | IC50 (5-HT1D receptors) | IC50 (5-HT1B receptors) | IC50 (5-HT3 receptors) | IC50 (5-HT2C receptors) | Period of immobility expressed as a percentage by comparison with the control group (mouse; 32 mg/kg, **p < 0.01) | Period of immobility expressed as a percentage by comparison with the control group (mouse; 64 mg/kg, ***p < 0.001)
Cc1csc2c1-n1cccc1/C2=N/OCC(C)CN(C)C (stereo not drawn) [Example 23] | 52 µM | 14 µM | 9.6 µM | 5 µM | 11 µM | 24 µM | 0.0054 µM | 2 µM |  | 
Cc1csc2c1-n1cccc1/C2=N/OCCN [Example 40, (Z)-3-Methyl-8-[(2-amino-ethoxy)imino]thieno[2,3-d]pyrrolo[1,2-a]pyrrole] | 3.1 µM | 15 µM | 0.9 µM | 0.58 µM | 2.7 µM | 0.92 µM |  | 0.18 µM |  | 
Cc1ccc2c(c1)C(=NOCC(C)N(C)C)c1cccn1-2 (stereo not drawn) [Example 52] | 3.3 µM | 8.4 µM | 2 µM | 13 µM | 0.81 µM | 3.8 µM | 0.044 µM | 2.3 µM |  | 
CC(CON=C1c2ccccc2-n2cccc21)N(C)C (stereo not drawn) [Example 55] | 3.8 µM | 12 µM | 2.8 µM | 0.32 µM | 1.4 µM | 4.4 µM | 0.0053 µM | 4.1 µM |  | 
Cc1csc2c1-n1cccc1/C2=N/OCCN(C)C [Example 3, (Z)-8-{[2-(N,N-Dimethylamino)ethoxy]imino}-3-methylthieno[2,3-d]pyrrolo-[1,2-a]pyrrole] | 5.8 µM | 3.1 µM | 2.2 µM | 0.12 µM | 0.48 µM | 2.7 µM | 0.00011 µM | 2.1 µM | -39% | -86%
CN(C)CCON=C1c2cc(Cl)ccc2-n2cccc21 [Example 49, 7-Chloro-9-{[2-(N,N-dimethylamino)ethoxy]imino}pyrrolo[1,2-a]indole] | 21 µM | 7.6 µM | 2.4 µM | 12 µM | 3.1 µM | 1.4 µM | 0.086 µM | 11 µM |  | 
Cc1csc2c1-n1cccc1/C2=N/OCCCN(C)C [Example 14] | 22 µM | 42 µM | 11 µM | 1.1 µM | 7 µM | 32 µM |  | 18 µM |  | 
Cc1ccc2c(c1)C(=NOCCC1CCCN1C)c1cccn1-2 (stereo not drawn) [Example 53] | 14 µM | 22 µM | 8.3 µM | 24 µM | 5.5 µM | 35 µM | 0.037 µM | 6 µM |  | 
CN1CCCC1CON=C1c2sccc2-n2cccc21 (racemic) [Example 13] | > 100 µM | 14 µM | 16 µM | 0.6 µM | 11 µM | 31 µM | 0.002 µM | 1 µM |  | 
Cc1csc2c1-n1cccc1C2=NOC(CCN(C)C)c1ccccc1 (stereo not drawn) [Example 39, 3-Methyl-8-{[3-(N,N-dimethylamino)-1-phenylprop-1-yloxy]imino}thieno-[2,3-d]pyrrolo[1,2-a]pyrrole] | 11 µM | 2.2 µM | 10 µM | 0.072 µM | 6.7 µM | > 100 µM | 0.2 µM | 0.061 µM | -53% | 
CN(C)CCON=C1c2ccccc2-n2cccc21 [Example 54] | 1.1 µM | 14 µM | 0.14 µM | 0.93 µM | 0.69 µM | 1.1 µM |  | 1.4 µM |  | 
Cc1csc2c1-n1cccc1/C2=N/OCCNCc1ccccc1 [Example 41, (Z)-3-Methyl-8-{[2-(N-benzylamino)ethoxy]imino}thieno[2,3-d]pyrrolo[1,2-a]-pyrrole] | 9.2 µM | 4.1 µM | 2.7 µM | 0.11 µM | 11 µM | 4.4 µM |  | 0.413 µM |  | 
CCN(CC)CCON=C1c2scc(C)c2-n2cccc21 [Example 15] | 21 µM | 13 µM | 11 µM | 0.13 µM | 4 µM | 6.4 µM | 0.005 µM | 0.84 µM |  | 
CN(C)CCON=C1c2sccc2-n2cccc21 [Example 4] | 0.48 µM | 5 µM | 0.55 µM | 0.89 µM | 0.41 µM | 0.61 µM |  | 0.82 µM |  | 
Cc1csc2c1-n1cccc1C2=NOCCN1CCCC1 [Example 17] | 1.6 µM | 3.7 µM | 3 µM | 0.3 µM | 3.2 µM | 3.6 µM | 0.002 µM | 0.71 µM |  | 
Cc1csc2c1-n1cccc1C2=NOCCN1CCCCC1 [Example 18] | 5.7 µM | 5.2 µM | 5.1 µM | 0.26 µM | 7.5 µM | 14 µM | 0.004 µM | 1.2 µM |  | 
